Series [1] addresses estrogen receptor (Homo sapiens, UniProt P03372). Conditions: Salituro et al.; cited from earlier work.
Series [2] in a line: In vivo tissue uptake of ^131I-IMTX (trans) in rat.
Series [3] in a line: Uterus to muscle ratio (tissue uptake, method not described). Particulars: in vivo.
The target in series [4] is T1, estrogen receptor (Sus scrofa, UniProt Q29040).
T1 sequence (Q29040 1-595): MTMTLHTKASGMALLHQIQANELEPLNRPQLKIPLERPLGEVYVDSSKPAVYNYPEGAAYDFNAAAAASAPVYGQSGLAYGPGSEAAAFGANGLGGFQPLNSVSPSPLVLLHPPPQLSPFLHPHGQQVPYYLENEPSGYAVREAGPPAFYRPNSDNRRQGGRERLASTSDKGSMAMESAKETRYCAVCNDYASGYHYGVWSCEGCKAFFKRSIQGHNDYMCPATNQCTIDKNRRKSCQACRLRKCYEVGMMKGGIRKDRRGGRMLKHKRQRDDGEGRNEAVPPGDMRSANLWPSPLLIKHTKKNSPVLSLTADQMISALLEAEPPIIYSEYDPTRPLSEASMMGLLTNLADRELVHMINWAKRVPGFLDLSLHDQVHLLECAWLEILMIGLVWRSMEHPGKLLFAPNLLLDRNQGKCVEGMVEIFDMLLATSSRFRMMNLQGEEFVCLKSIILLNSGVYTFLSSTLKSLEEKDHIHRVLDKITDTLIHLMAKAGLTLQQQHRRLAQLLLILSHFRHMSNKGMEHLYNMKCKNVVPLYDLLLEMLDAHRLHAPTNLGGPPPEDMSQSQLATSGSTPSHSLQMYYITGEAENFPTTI

The target of series [5] is T1, estrogen receptor. The series is described as follows: biochemical.
The test system of another series is MCF7. The series is described as follows: Inhibition of MCF7 breast tumor cell growth in vitro (72 hour exposure, MTT tetrazolium dye assay). Type of series: cell-based, human. Particulars: Table 6. The method, then: The MCF7 cell line is a human tumor cell line. This cell line was cultured in MEM( (Eagles) media in a 5% C0^2 atmosphere with 10% fetal calf serum that had been washed twice with dextran coated charcoal to reduce endogenous estrogen levels. The media was supplemented with 1 mM sodium pyruvate and 100 µm non-essential amino acids. The cell line was screened routinely for myoplasma contamination using the GenProbe kit (Fisher). Cells were trypsinized and plated at a density of 5,000 cells/well in 96 well microtiter plates and allowed to attach and recover for 24 hours.
The media was removed by aspiration and replaced with filter sterilized drug (concentration from 10-^4 M to […]) in media. The cells were incubated for 72 hours and then stained using the MTT tetrazolium dye assay of Mosmann^36 except that after the media was removed, the blue formazan product was solubilized in 50 µl/well DMSO.
A general note: Formazan colour is commonly taken as a measure of viable cells.

The mark [6] stands for this setting: IC-50 estrogen receptor binding, [^3H]estradiol (5 nM).

Chain of estrogen receptor (Homo sapiens, UniProt P03372) (P03372 whole entry): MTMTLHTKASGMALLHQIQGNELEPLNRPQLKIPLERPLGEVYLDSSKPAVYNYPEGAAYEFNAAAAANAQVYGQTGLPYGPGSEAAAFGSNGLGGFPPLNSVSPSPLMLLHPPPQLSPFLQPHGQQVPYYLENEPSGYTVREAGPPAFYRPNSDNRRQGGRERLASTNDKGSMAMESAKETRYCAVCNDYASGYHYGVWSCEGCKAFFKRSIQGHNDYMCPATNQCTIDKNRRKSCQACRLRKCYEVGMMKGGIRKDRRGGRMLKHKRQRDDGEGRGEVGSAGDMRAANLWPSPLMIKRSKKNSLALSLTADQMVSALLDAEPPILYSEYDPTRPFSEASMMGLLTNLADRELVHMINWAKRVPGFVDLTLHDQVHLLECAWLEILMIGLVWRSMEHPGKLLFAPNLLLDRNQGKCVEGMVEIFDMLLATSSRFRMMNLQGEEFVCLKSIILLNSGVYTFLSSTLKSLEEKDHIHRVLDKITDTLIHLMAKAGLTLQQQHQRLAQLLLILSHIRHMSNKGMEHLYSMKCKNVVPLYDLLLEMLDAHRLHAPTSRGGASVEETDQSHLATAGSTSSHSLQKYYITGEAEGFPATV

As to `CC/C(=C(\c1ccccc1)c1ccc(OCCN2CC2)cc1)c1ccccc1` (single isomer, unassigned) [tamoxifen azizidine cis isomer, tamoxifen azizidine], the “fold less affinity than the trans isomer” value at estrogen receptor [1] was 50 fold.
For the compound `CCN(CC)CCOc1ccc(C(=C(CCC[131I])c2ccccc2)c2ccccc2)cc1` (single isomer, unassigned) [^131 I-IMTX (trans)], the Uterus/blood ratio in series [2] (3h) was found to be 1.6; in series [2] (6h), 1.5; in series [2] (24h), 1.2. The tissue uptake liver in series [2] (n=5, 3h) is reported as 5.3 ± 0.84 % injected dose per organ; in series [2] (n=5, 6h) it was 3.0 ± 0.02 % injected dose per organ; in series [2] (n=5, 24h), 1.7 ± 0.21 % injected dose per organ. Further, the tissue uptake uterus in series [2] (n=5, 3h) was 0.5 ± 0.04 % injected dose per organ; in series [2] (n=5, 24h), 0.01 ± 0.001 % injected dose per organ.
Turning to `CCN(CC)CCOc1ccc(/C(=C(/CCCI)c2ccccc2)c2ccccc2)cc1` [Compound X], in series [3], the “uterus to muscle ratio” value was 3.6. Moreover, the “fold higher affinity for the estrogen receptor than native tamoxifen” value at estrogen receptor [4] is reported as 10-15 fold. In addition, at estrogen receptor [5] (setting [6]), the concentration for half-maximal inhibition (IC50) – broadly, the concentration that gives 50% inhibition – is 2e-06 M.
On to `CCN(CC)CCOc1ccc(/C(=C(\CCCO)c2ccccc2)c2ccccc2)cc1` [III (Cis), N,N-diethyl-hydroxymethyltamoxifen], for which the IC50 was determined as 16.7 µM with MCF7 (Homo sapiens, MCF7, 72 h, 72 hour exposure, average of three experiments, read-out: IC50 Dose); 1e-05 M on estrogen receptor [5] (IC50(M), [^3H]estradiol 5 nM, 4°C); 1e-05 M at estrogen receptor [5] (IC50(uM), concentration required to decrease bound [^3H]estradiol by 50%, average of three experiments); 1e-05 M at estrogen receptor [5] (setting [6]). In the series with MCF7 (relative potency, IC50 ratio between tamoxifen and competitor, tamoxifen = 100), the RP turned out to be 66. Also, the RBA at estrogen receptor [4] was 3. Further, on estrogen receptor [4], the “RBA*” value came out at 300. For the same compound, at estrogen receptor [5], the affinity, expressed as Ki, was 5 µM.
